Measurements as given in paper PMC3641831 (Biochemistry, 2010).

Tested on: poly(dA)•2poly(dT)
Assay: UV denaturation, triplex transition
Type: binding

## c1cc2ccc3cccc4ccc(c1)c2c34 [Compound 5, reference compound]
  stabilization of DNA triplex: does not stabilize
